Data set [1] concerns fibroblasts cultured on matrix with aligned collagen fibrils (30° condition). Put plainly: αSMA gene expression (RT-qPCR) of fibroblasts on aligned collagen matrix treated with inhibitors. Type of data set: cell-based, human. The note with it: 3 days; 1 μM verteporfin, 10 μM blebbistatin, 20 μM Y-27632, 2 μM SB-431542; 30° aligned matrix; normalized to fibroblasts. As to the method:
Quantitative gene expression analysis: Gene expression analysis for fibroblast differentiation was performed using an established protocol. Briefly, TRIzol (Thermo Fisher Scientific, Dreieich, Germany) was used to extract total RNA. The obtained RNA was converted into complementary DNA (cDNA) using a high-capacity cDNA reverse transcription kit (Applied Biosystems, Waltham, USA). The concentration and the ratio of absorbance at 260 nm and 280 nm of cDNA were quantified using a Nanodrop (Thermo Fisher Scientific, Dreieich, Germany) prior to performing gene expression analysis. Ribosomal protein S26 (RPS26) was used as a reference gene. […] The primer sequences are listed in Table 1. qPCR was performed using SYBR Green PCR Master Mix (Applied Biosystems, Waltham, USA). The qPCR procedure was set as follows: denaturation for 5 min at 95° C.; 45 cycles of denaturation (95° C., 15 s), annealing under primer-specific conditions (30 s) and target gene-specific extension (30 s at 72° C.). The fluorescence signal was measured for 20 s at 72° C. To confirm the specificity of the PCR products, melting curve analysis was performed at the end of each run. Experiments were performed in 4 replicates. Treatment with inhibitors: Fibroblasts cultured onto matrix reconstituted on inclined surfaces with an angle of 30° were treated with 1 μM verteporfin (YAP inhibitor; Sigma-Aldrich, Darmstadt, Germany), 10 μM blebbistatin (myosin inhibitor; Tocris, Bristol, United Kingdom), 20 μM Y-27632 (Rho-associated kinase (ROCK) inhibitor; Tocris, Bristol, United Kingdom) and 2 μM SB-431542 (TGF-31 receptor kinase inhibitor; Sigma-Aldrich, Darmstadt, Germany) for 3 days. After 3 days of treatment, RNA was extracted for the study of αSMA expression using qPCR, as stated in the quantitative gene analysis section. Experiments were performed in 6 replicates.
A general note: In qPCR the cycle at which signal appears reflects the starting amount.

Data set [2] shares this test system. The experiment in a line: Live/dead assay (DRAQ7, flow cytometry) of inhibitor-treated fibroblasts on aligned matrix. Type of data set: cell-based. The note with it: 3 days; 1 μM verteporfin, 10 μM blebbistatin, 20 μM Y-27632, 2 μM SB-431542; 30° aligned matrix. Here is the method: Treatment with inhibitors: Fibroblasts cultured onto matrix reconstituted on inclined surfaces with an angle of 30° were treated with 1 μM verteporfin (YAP inhibitor; Sigma-Aldrich, Darmstadt, Germany), 10 μM blebbistatin (myosin inhibitor; Tocris, Bristol, United Kingdom), 20 μM Y-27632 (Rho-associated kinase (ROCK) inhibitor; Tocris, Bristol, United Kingdom) and 2 μM SB-431542 (TGF-31 receptor kinase inhibitor; Sigma-Aldrich, Darmstadt, Germany) for 3 days. After 3 days of treatment, RNA was extracted for the study of αSMA expression using qPCR, as stated in the quantitative gene analysis section. Experiments were performed in 6 replicates.
Quantitative analysis of cell number and dead cells: Collagen matrices were digested using 2 mg/mL type IV collagenase (Thermo Fisher Scientific, Dreieich, Germany) for 15 min under standard cell culture conditions. Afterwards, cells were stained with DRAQ7 (dead cell staining dye; Biolegend, San Diego, USA) for 10 min on ice. Cells were analyzed using an Attune NxT Flow Cytometer equipped with an autosampler (Thermo Fisher Scientific, Dreieich, Germany). […] The percentage of dead cells was quantified by counting the number of cells that were positive for DRAQ7. At least 20,000 cells were analyzed per condition and replicate. […]

With `C[C@@H](N)[C@H]1CC[C@H](C(=O)Nc2ccncc2)CC1` [Y-27632], in data set [1], the αSMA gene expression entry was “significantly reduced”. As to `NC(=O)c1ccc(-c2nc(-c3ccc4c(c3)OCO4)c(-c3ccccn3)[nH]2)cc1` [SB-431542], the αSMA gene expression entry in data set [1] is recorded as “significantly reduced”.

In the case of `Cc1ccc2c(c1)C(=O)C1(O)CCN(c3ccccc3)C1=N2` (stereo not shown) [blebbistatin], the αSMA gene expression entry in data set [1] was “significantly reduced”. The “cell death (percentage of dead cells)” value in data set [2] was “without harming cells”.

These data come from US20260234549A1, “NON-INVASIVE TUNING OF PROTEIN ALIGNMENT” (NEW YORK UNIVERSITY IN ABU DHABI CORPORATION, priority 2023, published 2026).
